# Patent publication US20260345619A1 (Principia Biopharma Inc., priority 2023, published 2026)
# Assay: Loss of asthma control (LOAC) events, 12-week ICS/LABA withdrawal study
# Type: in vivo, human
# From the text: The general construct of this 12-week Loss of Asthma Control (LOAC) study consisted of a 4-week standardized ICS/LABA background therapy stabilization phase, a 4or 5-week background therapy withdrawal phase and a 3- or 4-week no background therapy phase, followed by a 4-week post IMP treatment safety follow-up period at the beginning of which, pre-screening asthma controller medications are restarted. Participants had access to short-acting β-agonist (SABA) reliever medication at all times during the protocol.
# The primary endpoint was the proportion of patients with LOAC. The key secondary endpoint for the study was change in pre-bronchodilator FEV1 from baseline at EOT.
# The primary endpoint was proportion of participants with LOAC during the 12-week treatment period.
# Note that if the number of participants in some regions was too low, these regions may have been pooled with other regions. This strategy also applied to all the rest of the analyses where region was one of the covariates.
# To assess the consistency in treatment effects across different subgroup levels, subgroup analyses were to be performed for the primary efficacy endpoint with respect to age group, gender, region, and other factors.
# Secondary endpoints included pre-bronchodilator FEV1 change from baseline at EOT, ACQ-5 score change from baseline, and AQLQ score change from baseline. Other secondary and exploratory endpoints are described in Table 2.
# [1] = 400 mg TID cohort, N = 64, mITT
# [2] = 400 mg TID cohort, age <45 years, n = 25
# [3] = 400 mg TID cohort, age ≥45 years, n = 39
# [4] = 400 mg TID cohort, baseline BMI <25 kg/m^2, n = 12
# [5] = 400 mg TID cohort, baseline BMI ≥25-<30 kg/m^2, n = 29
# [6] = 400 mg TID cohort, baseline BMI ≥30 kg/m^2, n = 23
# [7] = 400 mg TID cohort, baseline weight <60 kg, n = 2
# [8] = 400 mg TID cohort, baseline weight ≥60-<90 kg, n = 41
# [9] = 400 mg TID cohort, baseline weight ≥90 kg, n = 21
# [10] = 400 mg TID cohort, female, n = 39
# [11] = 400 mg TID cohort, male, n = 25
# [12] = 400 mg TID, N=64, 12 weeks, mITT
# [13] = 400 mg TID, 1 exacerbation within 2 years
# [14] = 400 mg TID, 2 exacerbations within 2 years
# [15] = 400 mg TID, FEV1 reversibility <12 %
# [16] = 400 mg TID, FEV1 reversibility ≥12 %
# [17] = 400 mg TID, age at onset <12 years
# [18] = 400 mg TID, age at onset <18 years
# [19] = 400 mg TID, age at onset ≥18-<40 years
# [20] = 400 mg TID, age at onset ≥18 years
# [21] = 400 mg TID, age at onset ≥40 years
structure (smiles),measurement,setting,value
"CC(C)(C=C(C#N)C(=O)N1CCC[C@@H](n2nc(-c3ccc(Oc4ccccc4)cc3F)c3c(N)ncnc32)C1)N1CCN(C2COC2)CC1 (mixture of isomers) [rilzabrutinib, (R)-2-[3-[4-amino-3-(2-fluoro-4-phenoxy-phenyl)pyrazolo[3,4-d]pyrimidin-1-yl]piperidine-1-carbonyl]-4-methyl-4-[4-(oxetan-3-yl)piperazin-1-yl]pent-2-enenitrile]","Intervention discontinuation due to lack of efficacy or an AE related to asthma worsening, number",[1],1
same,"Intervention discontinuation due to lack of efficacy or an AE related to asthma worsening, percentage",[1],(1.6)
same,Number of participants requiring hospitalization or emergency room visit,[1],0
same,Number of participants with LOAC: Yes,[1],12
same,Number of participants with increase in ICS ≥4 times the last prescribed ICS dose (or ≥50% of the prescribed ICS dose at baseline if background therapy withdrawal completed),[1],0
same,Number of participants with ≥6 additional reliever puffs of salbutamol/albuterol or levosalbutamol/levalbuterol in a 24 hour period (compared with baseline) on 2 consecutive days,[1],0
same,Number of participants with ≥30% reduction from baseline in AM PEF on 2 consecutive days,[1],10
same,"Participants with LOAC not triggered by use of rescue medication, number",[1],10
same,"Participants with LOAC not triggered by use of rescue medication, percentage",[1],(15.6)
same,"Participants with LOAC triggered by use of rescue medication, number",[1],1
same,"Participants with LOAC triggered by use of rescue medication, percentage",[1],(1.6)
same,Percentage of participants with LOAC: No,[1],(81.3)
same,Percentage of participants with LOAC: Yes,[1],(18.8)
same,Percentage of participants with ≥30% reduction from baseline in AM PEF on 2 consecutive days,[1],(15.6)
same,"LOAC incidence, number of participants","400 mg TID cohort, Western Countries, n = 2",0
same,"LOAC incidence, number of participants",[2],2
same,"LOAC incidence, percentage",[2],(8.0)
same,LOAC OR vs. placebo,"400 mg TID cohort, age <45 years, 95% CI (0.028, 0.725)",0.142
same,LOAC RD vs. placebo,"400 mg TID cohort, age <45 years, 95% CI (−0.505, −0.093)",−0.299
same,"LOAC incidence, number of participants",[3],10
same,"LOAC incidence, percentage",[3],(25.6)
same,LOAC OR vs. placebo,"400 mg TID cohort, age ≥45 years, 95% CI (0.408, 3.236)",1.149
same,LOAC RD vs. placebo,"400 mg TID cohort, age ≥45 years, 95% CI (−0.165, 0.216)",0.026
same,"LOAC incidence, number of participants",[4],3
same,"LOAC incidence, percentage",[4],(25.0)
same,LOAC OR vs. placebo,"400 mg TID cohort, baseline BMI <25 kg/m^2, 95% CI (0.121, 2.801)",0.583
same,LOAC RD vs. placebo,"400 mg TID cohort, baseline BMI <25 kg/m^2, 95% CI (−0.431, 0.203)",−0.114
same,"LOAC incidence, number of participants",[5],3
same,"LOAC incidence, percentage",[5],(10.3)
same,LOAC OR vs. placebo,"400 mg TID cohort, baseline BMI ≥25-<30 kg/m^2, 95% CI (0.064, 1.172)",0.274
same,LOAC RD vs. placebo,"400 mg TID cohort, baseline BMI ≥25-<30 kg/m^2, 95% CI (−0.398, 0.012)",−0.193
same,"LOAC incidence, number of participants",[6],6
same,"LOAC incidence, percentage",[6],(26.1)
same,LOAC OR vs. placebo,"400 mg TID cohort, baseline BMI ≥30 kg/m^2, 95% CI (0.313, 5.604)",1.324
same,LOAC RD vs. placebo,"400 mg TID cohort, baseline BMI ≥30 kg/m^2, 95% CI (−0.206, 0.307)",0.050
same,"LOAC incidence, number of participants",[7],1
same,"LOAC incidence, percentage",[7],(50.0)
same,LOAC OR vs. placebo,"400 mg TID cohort, baseline weight <60 kg, 95% CI (0.140, 64.262)",3.000
same,LOAC RD vs. placebo,"400 mg TID cohort, baseline weight <60 kg, 95% CI (−0.485, 0.985)",0.250
same,"LOAC incidence, number of participants",[8],8
same,"LOAC incidence, percentage",[8],(19.5)
same,LOAC OR vs. placebo,"400 mg TID cohort, baseline weight ≥60-<90 kg, 95% CI (0.182, 1.392)",0.503
same,LOAC RD vs. placebo,"400 mg TID cohort, baseline weight ≥60-<90 kg, 95% CI (−0.319, 0.059)",−0.130
same,"LOAC incidence, number of participants",[9],3
same,"LOAC incidence, percentage",[9],(14.3)
same,LOAC OR vs. placebo,"400 mg TID cohort, baseline weight ≥90 kg, 95% CI (0.095, 2.645)",0.500
same,LOAC RD vs. placebo,"400 mg TID cohort, baseline weight ≥90 kg, 95% CI (−0.367, 0.153)",−0.107
same,"LOAC incidence, number of participants",[10],8
same,"LOAC incidence, percentage",[10],(20.5)
same,LOAC OR vs. placebo,"400 mg TID cohort, female, 95% CI (0.224, 1.828)",0.640
same,LOAC RD vs. placebo,"400 mg TID cohort, female, 95% CI (−0.291, 0.123)",−0.084
same,"LOAC incidence, number of participants",[11],4
same,"LOAC incidence, percentage",[11],(16.0)
same,LOAC OR vs. placebo,"400 mg TID cohort, male, 95% CI (0.091, 1.966)",0.423
same,"participants without LOAC, number",[12],52
same,"participants without LOAC, percent",[12],(81.3)
same,"participants with LOAC, number","400 mg TID, N=64, 12 weeks, mITT, placebo 20",12
same,"participants with LOAC, percent","400 mg TID, N=64, 12 weeks, mITT, placebo […]",18.8%
same,"RRR vs. placebo (%), LOAC","400 mg TID, mITT",34.7%
same,"RR vs. placebo, LOAC","400 mg TID, mITT, 95% CI 0.348, 1.226",0.653
same,"RD (risk difference) vs. placebo, LOAC","400 mg TID, mITT, 95% CI −0.238, 0.061",−0.088
same,OR vs. placebo,[13],0.323
same,RD vs. Placebo,[13],−0.194
same,"LOAC, number",[14],7
same,OR vs. placebo,[14],1.896
same,RD vs. Placebo,[14],0.117
same,"LOAC, number","400 mg TID, >2 exacerbations within 2 years",0
same,"LOAC, number",[15],9
same,OR vs. placebo,[15],0.643
same,RD vs. Placebo,[15],−0.082
same,"LOAC, number",[16],1
same,OR vs. placebo,[16],0.417
same,RD vs. Placebo,[16],−0.090
same,"LOAC, number",[17],2
same,OR vs. placebo,[17],0.250
same,RD vs. Placebo,[17],−0.257
same,"LOAC, number",[18],2
same,OR vs. placebo,[18],0.218
same,RD vs. Placebo,[18],−0.245
same,"LOAC, number","400 mg TID, age at onset ≥12-<18 years",0
same,"LOAC, number",[19],6
same,OR vs. placebo,[19],0.514
same,RD vs. Placebo,[19],−0.135
same,"LOAC, number",[20],10
same,OR vs. placebo,[20],0.769
same,RD vs. Placebo,[20],−0.049
same,"LOAC, number",[21],4
same,OR vs. placebo,[21],1.619
same,RD vs. Placebo,[21],0.072
same,"LOAC, number","400 mg TID, all others than low EOS and low FeNO",8
